# Measured values published in patent US20230148214A1, “INDAZOLES AND AZAINDAZOLES AS LRRK2 INHIBITORS” (ESCAPE Bio, Inc., priority 2020, published 2023).
# Assays:
# LRRK2 G2019S = target: T1, LRRK2 G2019S (Homo sapiens, UniProt Q5S007, G2019S); assay: LRRK2 Kinase Activity Assay (LanthaScreen TR-FRET), G2019S; format: biochemical; conditions: recombinant G2019S-LRRK2, 25 μM ATP, 400 nM LRRKtide, 60 min; class symbols
# T1 construct: purchased Life Technologies PV4881
# Method in brief: (§1)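 Recombinant wild-type or G2019S LRRK2 incubated with fluorescein-labeled LRRKtide (ERM-based) peptide, ATP and serially diluted compound for 60 min at room temperature.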
# LRRK2 WT = target: T2, LRRK2 WT (Homo sapiens, UniProt Q5S007); assay: LRRK2 Kinase Activity Assay (LanthaScreen TR-FRET), wild type; format: biochemical; conditions: recombinant wild type LRRK2, 25 μM ATP, 400 nM LRRKtide, 60 min; class symbols
# T2 construct: purchased Life Technologies PR8604B
# Method in brief: as §1
# T2 sequence (Q5S007 whole entry): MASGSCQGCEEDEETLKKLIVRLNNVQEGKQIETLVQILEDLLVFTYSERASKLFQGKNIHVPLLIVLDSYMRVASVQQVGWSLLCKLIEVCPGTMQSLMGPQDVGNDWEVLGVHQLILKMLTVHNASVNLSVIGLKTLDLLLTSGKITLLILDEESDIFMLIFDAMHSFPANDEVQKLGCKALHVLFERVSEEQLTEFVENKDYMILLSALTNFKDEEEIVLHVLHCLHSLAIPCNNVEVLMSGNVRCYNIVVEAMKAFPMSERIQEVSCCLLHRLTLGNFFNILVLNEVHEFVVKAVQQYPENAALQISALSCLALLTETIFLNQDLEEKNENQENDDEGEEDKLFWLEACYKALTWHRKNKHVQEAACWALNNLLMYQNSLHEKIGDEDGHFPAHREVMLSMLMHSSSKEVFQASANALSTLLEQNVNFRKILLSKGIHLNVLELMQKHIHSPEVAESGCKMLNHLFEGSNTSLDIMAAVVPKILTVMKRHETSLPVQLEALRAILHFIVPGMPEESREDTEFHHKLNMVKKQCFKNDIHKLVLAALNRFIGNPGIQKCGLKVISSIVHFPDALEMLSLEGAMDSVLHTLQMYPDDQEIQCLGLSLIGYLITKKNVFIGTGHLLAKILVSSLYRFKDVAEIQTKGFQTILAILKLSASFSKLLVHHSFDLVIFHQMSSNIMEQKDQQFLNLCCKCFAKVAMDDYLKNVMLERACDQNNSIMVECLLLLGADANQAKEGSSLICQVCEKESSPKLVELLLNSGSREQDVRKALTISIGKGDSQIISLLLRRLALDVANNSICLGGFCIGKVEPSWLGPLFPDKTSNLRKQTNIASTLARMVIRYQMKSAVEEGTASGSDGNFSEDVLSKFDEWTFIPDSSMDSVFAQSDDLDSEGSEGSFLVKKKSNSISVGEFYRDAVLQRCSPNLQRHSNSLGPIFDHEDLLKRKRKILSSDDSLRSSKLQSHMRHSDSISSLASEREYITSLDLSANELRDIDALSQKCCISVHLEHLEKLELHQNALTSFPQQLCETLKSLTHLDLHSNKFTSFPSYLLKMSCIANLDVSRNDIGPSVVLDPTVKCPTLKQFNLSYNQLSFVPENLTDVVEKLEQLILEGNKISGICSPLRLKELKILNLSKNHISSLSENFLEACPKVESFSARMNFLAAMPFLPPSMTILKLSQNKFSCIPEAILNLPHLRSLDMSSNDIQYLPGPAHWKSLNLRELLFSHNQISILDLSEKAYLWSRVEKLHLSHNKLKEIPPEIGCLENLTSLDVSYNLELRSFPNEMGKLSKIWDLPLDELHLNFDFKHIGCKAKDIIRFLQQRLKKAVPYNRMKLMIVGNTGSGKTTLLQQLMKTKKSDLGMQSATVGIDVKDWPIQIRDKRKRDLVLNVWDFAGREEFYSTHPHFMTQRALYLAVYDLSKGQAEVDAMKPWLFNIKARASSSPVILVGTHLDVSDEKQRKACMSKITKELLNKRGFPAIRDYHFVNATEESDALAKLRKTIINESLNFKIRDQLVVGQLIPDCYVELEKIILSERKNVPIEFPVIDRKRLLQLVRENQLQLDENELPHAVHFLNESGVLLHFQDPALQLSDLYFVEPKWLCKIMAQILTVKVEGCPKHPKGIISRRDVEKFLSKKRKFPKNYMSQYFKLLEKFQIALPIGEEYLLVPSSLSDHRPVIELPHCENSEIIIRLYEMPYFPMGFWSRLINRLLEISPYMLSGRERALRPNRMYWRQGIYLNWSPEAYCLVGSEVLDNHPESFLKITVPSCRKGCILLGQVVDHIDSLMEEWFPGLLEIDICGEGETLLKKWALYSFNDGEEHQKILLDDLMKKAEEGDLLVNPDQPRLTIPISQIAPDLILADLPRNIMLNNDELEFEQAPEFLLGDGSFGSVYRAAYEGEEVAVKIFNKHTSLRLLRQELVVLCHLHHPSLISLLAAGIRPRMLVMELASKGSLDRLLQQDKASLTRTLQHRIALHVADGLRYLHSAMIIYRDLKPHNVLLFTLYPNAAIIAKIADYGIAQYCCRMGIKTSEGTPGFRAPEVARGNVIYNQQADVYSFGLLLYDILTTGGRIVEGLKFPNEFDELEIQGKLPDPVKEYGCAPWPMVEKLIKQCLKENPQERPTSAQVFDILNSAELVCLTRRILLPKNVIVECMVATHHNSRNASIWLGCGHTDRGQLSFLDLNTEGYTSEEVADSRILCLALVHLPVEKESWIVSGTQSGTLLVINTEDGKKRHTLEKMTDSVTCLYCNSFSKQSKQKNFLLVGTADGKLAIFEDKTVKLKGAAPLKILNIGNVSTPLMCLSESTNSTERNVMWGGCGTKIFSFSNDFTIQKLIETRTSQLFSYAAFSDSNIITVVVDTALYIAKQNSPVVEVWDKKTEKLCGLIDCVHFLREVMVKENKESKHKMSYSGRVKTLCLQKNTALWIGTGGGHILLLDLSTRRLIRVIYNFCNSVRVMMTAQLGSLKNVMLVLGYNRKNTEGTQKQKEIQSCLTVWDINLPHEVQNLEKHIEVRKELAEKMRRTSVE
# T1 sequence (Q5S007 whole entry G2019S): as the sequence (Q5S007 whole entry) above, with G2019S counted along it
smiles,measurement,setting,value
"COc1cc2c(cc1C#N)CCC[C@@H]2Nc1ccc2[nH]nc(-c3cnoc3)c2c1 (single isomer, unassigned) [Example 114, enantiomer 2, 5-((3-(Isoxazol-4-yl)-1H-indazol-5-yl)amino)-3-methoxy-5,6,7,8-tetrahydronaphthalene-2-carbonitrile]",IC50,LRRK2 G2019S,< 100 nM
same,IC50,LRRK2 WT,< 100 nM
"CC1(C)CC[C@H](Nc2ccc3[nH]nc(-c4cnco4)c3c2)c2ccc(C#N)cc21 (single isomer, unassigned) [Example 115, enantiomer 1, 8,8-Dimethyl-5-((3-(oxazol-5-yl)-1H-indazol-5-yl)amino)-5,6,7,8-tetrahydronaphthalene-2-carbonitrile]",IC50,LRRK2 G2019S,< 100 nM
same,IC50,LRRK2 WT,100 to 1000 nM
"CC1(C)CC[C@H](Nc2ccc3[nH]nc(-c4cnco4)c3c2)c2ccc(C#N)cc21 (single isomer, unassigned) [Example 115, enantiomer 2, 8,8-Dimethyl-5-((3-(oxazol-5-yl)-1H-indazol-5-yl)amino)-5,6,7,8-tetrahydronaphthalene-2-carbonitrile]",IC50,LRRK2 G2019S,< 100 nM
same,IC50,LRRK2 WT,100 to 1000 nM
"CCc1cc(-c2n[nH]c3ccc(N[C@H]4CCCc5cc(C#N)ccc54)cc23)ccn1 (single isomer, unassigned) [Example 116, enantiomer 1, 5-((3-(2-Ethylpyridin-4-yl)-1H-indazol-5-yl)amino)-5,6,7,8-tetrahydronaphthalene-2-carbonitrile]",IC50,LRRK2 G2019S,< 100 nM
same,IC50,LRRK2 WT,< 100 nM
"Cc1c(C#N)ccc2c1CC[C@H]2Nc1ccc2[nH]nc(-c3cnoc3)c2c1 (single isomer, unassigned) [Example 118, enantiomer 1, 1-((3-(Isoxazol-4-yl)-1H-indazol-5-yl)amino)-4-methyl-2,3-dihydro-1H-indene-5-carbonitrile]",IC50,LRRK2 G2019S,< 100 nM
same,IC50,LRRK2 WT,< 100 nM
"N#Cc1ccc2c(c1)CCC[C@H]2Nc1ccc2[nH]nc(-c3cnco3)c2c1 (single isomer, unassigned) [Example 119, enantiomer 1, 5-((3-(Oxazol-5-yl)-1H-indazol-5-yl)amino)-5,6,7,8-tetrahydronaphthalene-2-carbonitrile]",IC50,LRRK2 G2019S,< 100 nM
same,IC50,LRRK2 WT,100 to 1000 nM
"N#Cc1cnc2c(c1)CCC[C@H]2Nc1ccc2[nH]nc(-c3cnco3)c2c1 (single isomer, unassigned) [Example 120, enantiomer 1, 8-((3-(Oxazol-5-yl)-1H-indazol-5-yl)amino)-5,6,7,8-tetrahydroquinoline-3-carbonitrile]",IC50,LRRK2 G2019S,< 100 nM
same,IC50,LRRK2 WT,< 100 nM
"CCc1cc(-c2n[nH]c3ccc(O[C@@H]4CCCc5cc(C#N)cnc54)cc23)ccn1 (single isomer, unassigned) [Example 121, enantiomer 1, 8-((3-(2-Ethylpyridin-4-yl)-1H-indazol-5-yl)oxy)-5,6,7,8-tetrahydroquinoline-3-carbonitrile]",IC50,LRRK2 G2019S,< 100 nM
same,IC50,LRRK2 WT,< 100 nM
"N#Cc1cc2c(cn1)[C@H](Oc1ccc3[nH]nc(-c4cnco4)c3c1)CCC2 (single isomer, unassigned) [Example 122, enantiomer 1, 8-((3-(Oxazol-5-yl)-1H-indazol-5-yl)oxy)-5,6,7,8-tetrahydroisoquinoline-3-carbonitrile]",IC50,LRRK2 G2019S,< 100 nM
same,IC50,LRRK2 WT,100 to 1000 nM
"COc1cc(-c2n[nH]c3ccc(O[C@H]4CCCc5cc(C#N)cnc54)cc23)ccn1 (single isomer, unassigned) [Example 123, enantiomer 1, 8-((3-(2-Methoxypyridin-4-yl)-1H-indazol-5-yl)oxy)-5,6,7,8-tetrahydroquinoline-3-carbonitrile]",IC50,LRRK2 G2019S,< 100 nM
same,IC50,LRRK2 WT,< 100 nM
"N#Cc1ccc2c(c1)CC[C@@H]2Oc1ccc2[nH]nc(C3CC3)c2c1 (single isomer, unassigned) [Example 124, enantiomer 1, 1-((3-Cyclopropyl-1H-indazol-5-yl)oxy)-2,3-dihydro-1H-indene-5-carbonitrile]",IC50,LRRK2 G2019S,< 100 nM
same,IC50,LRRK2 WT,100 to 1000 nM
"N#Cc1cnc2c(c1)CCC[C@@H]2Nc1ccc2[nH]nc(Br)c2c1 (single isomer, unassigned) [Example 125, enantiomer 1, 8-((3-Bromo-1H-indazol-5-yl)amino)-5,6,7,8-tetrahydroquinoline-3-carbonitrile]",IC50,LRRK2 G2019S,< 100 nM
same,IC50,LRRK2 WT,100 to 1000 nM
"N#Cc1cnc2c(c1)CCC[C@@H]2Nc1ccc2[nH]nc(Br)c2c1 (single isomer, unassigned) [Example 125, enantiomer 2, 8-((3-Bromo-1H-indazol-5-yl)amino)-5,6,7,8-tetrahydroquinoline-3-carbonitrile]",IC50,LRRK2 G2019S,100 to 1000 nM
same,IC50,LRRK2 WT,1000 to 10000 nM
"N#Cc1cnc2c(c1)CCC[C@@H]2Nc1ccc2[nH]nc(Cl)c2c1 (single isomer, unassigned) [Example 126, enantiomer 1, 8-((3-Chloro-1H-indazol-5-yl)amino)-5,6,7,8-tetrahydroquinoline-3-carbonitrile]",IC50,LRRK2 G2019S,1000 to 10000 nM
same,IC50,LRRK2 WT,1000 to 10000 nM
"N#Cc1cnc2c(c1)CCC[C@@H]2Nc1ccc2[nH]nc(Cl)c2c1 (single isomer, unassigned) [Example 126, enantiomer 2, 8-((3-Chloro-1H-indazol-5-yl)amino)-5,6,7,8-tetrahydroquinoline-3-carbonitrile]",IC50,LRRK2 G2019S,< 100 nM
same,IC50,LRRK2 WT,100 to 1000 nM
"Cc1c(C#N)ccc2c1CC[C@@H]2Nc1ccc2[nH]nc(I)c2c1 (single isomer, unassigned) [Example 127, enantiomer 1, 1-((3-Iodo-1H-indazol-5-yl)amino)-4-methyl-2,3-dihydro-1H-indene-5-carbonitrile]",IC50,LRRK2 G2019S,100 to 1000 nM
same,IC50,LRRK2 WT,100 to 1000 nM
"N#Cc1ccc2c(c1)CC[C@H]2Nc1ccc2[nH]nc(I)c2c1 (single isomer, unassigned) [Example 128, enantiomer 1, 1-((3-Iodo-1H-indazol-5-yl)amino)-2,3-dihydro-1H-indene-5-carbonitrile]",IC50,LRRK2 G2019S,100 to 1000 nM
same,IC50,LRRK2 WT,100 to 1000 nM
"N#Cc1ccc2c(c1)CC[C@H]2Nc1ccc2[nH]nc(I)c2c1 (single isomer, unassigned) [Example 128, enantiomer 2, 1-((3-Iodo-1H-indazol-5-yl)amino)-2,3-dihydro-1H-indene-5-carbonitrile]",IC50,LRRK2 G2019S,< 100 nM
same,IC50,LRRK2 WT,100 to 1000 nM
"Cc1n[nH]c2ccc(N[C@H]3CCc4c(C#N)cccc43)cc12 (single isomer, unassigned) [Example 129, enantiomer 1, 1-((3-Methyl-1H-indazol-5-yl)amino)-2,3-dihydro-1H-indene-4-carbonitrile]",IC50,LRRK2 G2019S,100 to 1000 nM
same,IC50,LRRK2 WT,1000 to 10000 nM
"Cc1n[nH]c2ccc(N[C@H]3CCc4ccc(C#N)cc43)cc12 (single isomer, unassigned) [Example 130, enantiomer 1, 3-((3-Methyl-1H-indazol-5-yl)amino)-2,3-dihydro-1H-indene-5-carbonitrile]",IC50,LRRK2 G2019S,100 to 1000 nM
same,IC50,LRRK2 WT,1000 to 10000 nM
"Cc1n[nH]c2ccc(N[C@H]3CCc4ccc(C#N)cc43)cc12 (single isomer, unassigned) [Example 130, enantiomer 2, 3-((3-Methyl-1H-indazol-5-yl)amino)-2,3-dihydro-1H-indene-5-carbonitrile]",IC50,LRRK2 G2019S,< 100 nM
same,IC50,LRRK2 WT,100 to 1000 nM
"Cc1cc(C#N)cc2c1[C@@H](Nc1ccc3[nH]nc(-c4cnco4)c3c1)CC2 (single isomer, unassigned) [Example 131, enantiomer 1, 7-Methyl-1-((3-(oxazol-5-yl)-1H-indazol-5-yl)amino)-2,3-dihydro-1H-indene-5-carbonitrile]",IC50,LRRK2 G2019S,< 100 nM
same,IC50,LRRK2 WT,< 100 nM
